We go through 22 compounds from patent publication US20240352309A1, “FLUORESCENT DYE, AND PREPARATION METHOD THEREFOR AND USE THEREOF” (FLUORESCENCE DIAGNOSIS (SHANGHAI) BIOTECH COMPANY LTD., priority 2021, published 2024).

The nature of this data set: Fluorescence emission in glycerol and methanol (Test Example 1). To be noted: for Fluorescence intensity ratio in glycerol and methanol: 1×10^−5 M in glycerol vs methanol, maximum excitation wavelength; for Emission wavelength: 1×10^−5 M, excited at maximum excitation wavelength of each dye. It counts as physicochemical. As to the method:
The fluorescent dye (molecular rotors) prepared in Examples dye1-dye42 were dissolved in DMSO each to prepare a mother solution with a concentration of 1×10^−2 M, and each mother solution was added to glycerol and methanol respectively and was mixed well, and a solution with a final concentration of 1×10^−5 M was prepared.

In the case of `CCN1C(=O)/C(=C/c2ncc(N(C)CCO)s2)SC1=S` [dye2], the “Fluorescence intensity ratio in glycerol and methanol” value (“Fluorescence intensity ratio” below) is 587; the Emission wavelength is 532 nm.

For `CN1CCOc2cc(/C=C3\SC(=O)NC3=S)ccc21` [dye4], the “Fluorescence intensity ratio” value is reported as 984; the Emission wavelength was 620 nm.

Take `CN1CCSc2cc(/C=C3\SC(=O)NC3=O)ccc21` [dye5]: the “Fluorescence intensity ratio” value is 1021; the Emission wavelength is 550 nm.

With `CN(CCO)c1cc2sc(/C=C3\SC(=O)NC3=O)cc2s1` [dye11], the “Fluorescence intensity ratio” value came to 954; the Emission wavelength is 590 nm.

Consider `CN(CCO)c1cc2sc(/C=C3\SC(=S)NC3=S)cc2s1` [dye14], for which the “Fluorescence intensity ratio” value is given as 852; the Emission wavelength came to 720 nm.

On to `CN1C(=O)/C(=C/c2cc3sc(N(C)CCO)cc3s2)SC1=S` [dye15], for which the “Fluorescence intensity ratio” value is 891; the Emission wavelength was found to be 655 nm.

For `CN1C(=S)S/C(=C\c2cc3sc(N(C)CCO)cc3s2)C1=S` [dye16], the “Fluorescence intensity ratio” value is reported as 982; the Emission wavelength is 730 nm.

For `CN(CCO)c1cc2sc(/C=C3\NC(=S)N(CCC(=O)O)C3=O)cc2s1` [dye17], the “Fluorescence intensity ratio” value amounted to 993; the Emission wavelength was found to be 630 nm.

`CN1C(=O)/C(=C/c2cc3sc(N(C)CCOCCOCCO)cc3s2)SC1=S` [dye18]: the “Fluorescence intensity ratio” value was 1026; the Emission wavelength turned out to be 588 nm.

Turning to `CCCCCCCCCCN(C)c1cc2sc(/C=C3\SC(=S)N(C)C3=O)cc2s1` [dye19], the “Fluorescence intensity ratio” value worked out at 1098; the Emission wavelength worked out at 650 nm.

For `O=C1NC(=S)S/C1=C\c1cc2sc(N(CCO)CCO)cc2s1` [dye20], the “Fluorescence intensity ratio” value was determined as 1133; the Emission wavelength amounted to 650 nm.

As for `CN(CCNS(C)(=O)=O)c1ccc2cc(/C=C3\NC(=S)NC3=O)sc2c1` [dye23], the “Fluorescence intensity ratio” value was determined as 985; the Emission wavelength turned out to be 640 nm.

On to `CN(C)CCN(C)c1ccc2cc(/C=C3\SC(=O)NC3=O)sc2c1` [dye24], for which the “Fluorescence intensity ratio” value worked out at 465; the Emission wavelength was 750 nm.

For `CN1C(=O)/C(=C/c2ccc3cc(N(C)CCCl)ccc3n2)SC1=S` [dye26], the “Fluorescence intensity ratio” value came out at 871; the Emission wavelength came out at 660 nm.

`CN(CCO)c1ccc2nc(/C=C3\SC(=S)NC3=O)sc2c1` [dye27]: the “Fluorescence intensity ratio” value is reported as 765; the Emission wavelength turned out to be 590 nm.

Consider `CCN1C(=O)S/C(=C\c2cc3ccc(N(C)CCO)cc3o2)C1=O` [dye28], for which the “Fluorescence intensity ratio” value stood at 682; the Emission wavelength was 690 nm.

On to `CN1C(=O)/C(=C/c2nc3ccc(N(C)CCO)cc3o2)NC1=S` [dye29], for which the “Fluorescence intensity ratio” value worked out at 721; the Emission wavelength was determined as 650 nm.

On to `CN(C)c1ccc2cc(/C=C3\SC(=S)N(N)C3=O)sc2c1` [dye30], for which the “Fluorescence intensity ratio” value came out at 761; the Emission wavelength is 640 nm.

Consider `CN(C)c1ccc2cc(/C=C3\SC(=S)N(CCC(=O)O)C3=S)oc2c1` [dye31], for which the “Fluorescence intensity ratio” value was found to be 980; the Emission wavelength stood at 685 nm.

For the compound `CN(C)c1ccc2cc(/C=C3\NC(=S)NC3=S)oc2c1` [dye32], the “Fluorescence intensity ratio” value is on record as 687; the Emission wavelength stood at 654 nm.

Regarding `CN(C)c1ccc2nc(/C=C3\SC(=N)NC3=N)oc2c1` [dye33], the “Fluorescence intensity ratio” value was 461; the Emission wavelength was determined as 622 nm.

In the case of `CN(CCO)c1ccc2c(c1)C(C)(C)c1cc(/C=C3\SC(=S)NC3=O)ccc1-2` [dye35], the “Fluorescence intensity ratio” value is listed as 530; the Emission wavelength stood at 740 nm.
